Patent US11643438B2, “Antimicrobial peptides and methods of use” (priority 2018, dated 2023)
≈ marks a conversion by molar mass, not a printed value. Entries after “also recorded” stand apart in the source; their conditions may differ. Where two headings read alike, the source gives them in different places. *1 amine or outer side, *2 acyl side, *3 side chain or, on linkers, in order; H or OH if unused. Where a SMILES comes first, the peptide text is derived from it. [ ]: non-standard residue; d: D form. X2 = CC[C@H](C)C[C@H](C)C[C@H](C)C[C@H](N[*:1])C(=O)[*:2]; X1 = CC[C@@H](C)[C@@H](O[*:1])C(=O)[*:2]; NMeVal(β-OH) = CN[C@H](C(=O)O)C(C)(C)O; aIle = CC[C@@H](C)[C@H](N)C(=O)O; NMeV = CN[C@H](C(=O)O)C(C)C; Sar = CNCC(=O)O

Tests used:
Alternaria brassicicola = test: MIC/MFC against phytopathogenic (endophytic) fungi
C. albicans SC5314 Flu^R = test: Ex vivo model of fungal keratitis (porcine cornea); parameters: species or system Candida albicans
Alternaria tennuissiema = test: MIC/MFC against phytopathogenic (endophytic) fungi
[1] = Mammalian cell cytotoxicity assay (calcein/Hoechst); format: cell-based; settings: human, read-out: LC50
Procedure: Cell cytotoxicity was tested against the human liver cancer cell line HepG2 and the HPV-immortalized ectocervical epithelium cell line Ect1/E6E7. The HepG2 cells were cultured in the EMEM medium supplemented with 5% FetalClone III and penicillin/streptomycin (5 Units/mL, 50 ug/mL). The Ect1/E6E7 cells were grown in the RPMI 1640 medium supplemented with 5% FetalClone III, EGF (10 ng/mL Novoprotein #C029), and penicillin/streptomycin (5 Units/mL, 50 ug/mL). For the assays, 5,000 HepG2 or Ect1/E6E7 cells were seeded into each well of a 96-well plate and allowed to attach overnight in a 37° C. humidified incubator. The next day, test compounds were diluted in DMSO, added to the wells at a final DMSO concentration of 0.5% and cells were incubated for an additional 48 hours. Cell viability was determined by the Calcein and Hoechst Assay on the Perkin Elmer Operetta. In each assay, 5 μL of the fluorescent dyes (40 μM calcein AM and 160 μM Hoechst 33342 in DMSO) and 25 μL PBS were added into each well. Plates were incubated for 30 minutes and then analyzed on the Operetta. The Harmony software was used to calculate the whole-cell area by finding all the Hoechst-labeled nuclei. The live and dead cells were assessed based on a threshold of the green calcein fluorescence. […]

P. glomerata = test: MIC/MFC against phytopathogenic (endophytic) fungi
Candida albicans SC5314 = test: Ex vivo model of fungal keratitis (porcine cornea)
Fusarium tricinctum = test: MIC/MFC against phytopathogenic (endophytic) fungi
[2] = system: Aspergillus fumigatus NRRL5109; test: Ex vivo model of fungal keratitis (porcine cornea); settings: for effect of different doses on fungal growth: FIG. 10
Fusarium oxysporum = test: MIC/MFC against phytopathogenic (endophytic) fungi
Nodulosporium spp. = test: MIC/MFC against phytopathogenic (endophytic) fungi
Alternaria brassicae = test: MIC/MFC against phytopathogenic (endophytic) fungi

Compound `CC[C@H](C)C[C@H](C)C[C@H](C)C[C@@H]1NC(=O)[C@H](C(C)C)N(C)C(=O)[C@@H]([C@H](C)CC)OC(=O)[C@H](C(C)(C)O)N(C)C(=O)[C@H](CC(C)C)NC(=O)[C@H](C(C)C)N(C)C(=O)[C@H]([C@H](C)CC)NC(=O)[C@@H]2CCCN2C(=O)CN(C)C1=O` [Compound 1, persephacin] (cyclo(L[NMeVal(β-OH)][X1][NMeV][X2][Sar]P[aIle][NMeV])) has an MFC (Alternaria brassicicola) of 20 µM (≈ 21.5 µg/mL), an MIC (Alternaria brassicicola) of 5 µM (≈ 5.38 µg/mL) and a CFU (C. albicans SC5314 Flu^R; C. albicans SC5314 Flu^R, 118A 0.1% (1 mg/ml), natamycin 5% (50 mg/ml), fluconazole 2% (20 mg/ml)) of 0 CFU. The “effect of different doses on fungal growth” value (shortened to “effect of different doses”) (C. albicans SC5314 Flu^R; Candida albicans SC5314FluR, 50-1,000 μg/mL, FIG. 9) was “effective at reducing or eliminating the fungus”, the MFC (Alternaria tennuissiema) was 10 µM (≈ 10.8 µg/mL) and the MIC (Alternaria tennuissiema) was 10 µM (≈ 10.8 µg/mL). It also gave a CC50 at 48 h ([1]; Ect1/E6E7 cells (HPV-immortalized ectocervical epithelium), Ect1/E6E7 cell line) of 30 µM, a CC50 at 48 h ([1]; HepG2 cells, HepG2 cell line) of 30 µM and an MFC (P. glomerata) of 1.25 µM (≈ 1.34 µg/mL). The MIC (P. glomerata) was 0.625 µM (≈ 0.672 µg/mL), the MIC (P. glomerata; P. glomerata, […], listed as Persephacin A) was “.625 µM” and the “antifungal activity (fungal growth/infection), in words” value (Candida albicans SC5314; 0.1% 118A, 2% fluconazole, 5% natamycin, FIG. 11) was “inhibited the growth; also recorded: eliminated the fungus”. For the same compound, the “effect of different doses” value (Candida albicans SC5314; 50-1,000 μg/mL, FIG. 8) was “effective at reducing or eliminating the fungus”, the CFU (Candida albicans SC5314; 118A 0.1% (1 mg/ml), natamycin 5% (50 mg/ml), fluconazole 2% (20 mg/ml)) was 0 CFU and the MFC (Fusarium tricinctum) was 10 µM (≈ 10.8 µg/mL). The MIC (Fusarium tricinctum) was 5 µM (≈ 5.38 µg/mL), the “effect of different doses” value ([2]; Aspergillus fumigatus NRRL 5109, 1,000 μg/mL) was “eliminating” and the “antifungal activity (fungal growth/infection), in words” value ([2]; Aspergillus fumigatus NRRL 5109, 0.1% 118A, 2% fluconazole, 5% natamycin, FIG. 13) was “inhibited the growth; also recorded: eliminated the fungus”. The “effect of different doses” value ([2]; Aspergillus fumigatus NRRL 5109, 50-250 μg/mL) was “effective at reducing”, the CFU ([2]; Aspergillus fumigatus NRRL5109, 118A 0.1% (1 mg/ml), natamycin 5% (50 mg/ml), fluconazole 2% (20 mg/ml)) was 0 CFU and the MFC (Fusarium oxysporum) was 20 µM (≈ 21.5 µg/mL). The MIC (Fusarium oxysporum) was 5 µM (≈ 5.38 µg/mL), the MFC (Nodulosporium spp.) was > 20 µM and the MIC (Nodulosporium spp.) was > 20 µM. The MFC (Nodulosporium spp.; Nodulosporium spp., […]) was “neither compound showed MIC or MFC activity”, the MIC (Nodulosporium spp.; Nodulosporium spp., […]) was “neither compound showed MIC or MFC activity” and the MFC (Alternaria brassicae) was 2.5 µM (≈ 2.69 µg/mL). For the same compound, the MIC (Alternaria brassicae) was 1.25 µM (≈ 1.34 µg/mL).
